{"source": "paper PMC7614683", "about": "“A small molecule PI3Kα activator for cardioprotection and neuroregeneration” (Nature, 2023)", "experiment_in_all_cases": "SelectScreen LanthaScreen Binding", "conditions_in_all_cases": "1000 nM", "key": {"ULK2": {"biological_target": "T1, ULK2 (Homo sapiens, UniProt Q8IYT8)", "T1 sequence (Q8IYT8 1-1036)": "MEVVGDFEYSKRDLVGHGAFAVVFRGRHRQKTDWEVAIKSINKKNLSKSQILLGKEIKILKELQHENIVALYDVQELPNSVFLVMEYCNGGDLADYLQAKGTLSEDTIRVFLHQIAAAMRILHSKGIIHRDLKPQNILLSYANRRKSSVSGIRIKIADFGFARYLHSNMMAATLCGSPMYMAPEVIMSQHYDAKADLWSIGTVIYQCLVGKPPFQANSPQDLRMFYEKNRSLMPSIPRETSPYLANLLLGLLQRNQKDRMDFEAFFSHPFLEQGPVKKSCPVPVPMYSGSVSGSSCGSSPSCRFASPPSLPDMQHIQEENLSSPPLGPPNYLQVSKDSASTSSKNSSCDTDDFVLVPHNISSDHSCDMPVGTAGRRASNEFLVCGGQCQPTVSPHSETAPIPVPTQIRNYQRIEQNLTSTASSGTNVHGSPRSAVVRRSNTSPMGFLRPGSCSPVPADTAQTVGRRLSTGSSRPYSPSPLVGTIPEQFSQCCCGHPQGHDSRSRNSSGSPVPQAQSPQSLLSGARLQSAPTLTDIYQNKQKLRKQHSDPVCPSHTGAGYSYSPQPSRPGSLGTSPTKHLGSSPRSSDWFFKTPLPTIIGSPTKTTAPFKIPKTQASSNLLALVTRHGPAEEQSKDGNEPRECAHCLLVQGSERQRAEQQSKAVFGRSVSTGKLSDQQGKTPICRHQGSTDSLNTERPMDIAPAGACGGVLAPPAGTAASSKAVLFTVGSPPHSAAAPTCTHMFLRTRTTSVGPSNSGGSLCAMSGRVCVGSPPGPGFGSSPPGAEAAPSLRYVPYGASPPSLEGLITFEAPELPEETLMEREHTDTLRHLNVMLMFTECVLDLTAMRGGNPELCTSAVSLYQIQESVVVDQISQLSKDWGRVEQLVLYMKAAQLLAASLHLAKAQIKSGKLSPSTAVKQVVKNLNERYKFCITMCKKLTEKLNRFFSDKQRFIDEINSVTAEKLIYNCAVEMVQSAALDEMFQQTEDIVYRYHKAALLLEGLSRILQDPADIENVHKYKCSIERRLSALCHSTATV", "procedure,_shortened": "(§1)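 Percent effect values derive from SelectScreen Adapta, Lantha and Z-LYTE assays in which 1938 was present at 1 μM, spanning 133 protein kinases and 7 lipid kinases.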"}, "MAP4K1 (HPK1)": {"biological_target": "MAP4K1 (HPK1) (Homo sapiens, UniProt Q92918)", "sequence (Q92918 whole entry)": "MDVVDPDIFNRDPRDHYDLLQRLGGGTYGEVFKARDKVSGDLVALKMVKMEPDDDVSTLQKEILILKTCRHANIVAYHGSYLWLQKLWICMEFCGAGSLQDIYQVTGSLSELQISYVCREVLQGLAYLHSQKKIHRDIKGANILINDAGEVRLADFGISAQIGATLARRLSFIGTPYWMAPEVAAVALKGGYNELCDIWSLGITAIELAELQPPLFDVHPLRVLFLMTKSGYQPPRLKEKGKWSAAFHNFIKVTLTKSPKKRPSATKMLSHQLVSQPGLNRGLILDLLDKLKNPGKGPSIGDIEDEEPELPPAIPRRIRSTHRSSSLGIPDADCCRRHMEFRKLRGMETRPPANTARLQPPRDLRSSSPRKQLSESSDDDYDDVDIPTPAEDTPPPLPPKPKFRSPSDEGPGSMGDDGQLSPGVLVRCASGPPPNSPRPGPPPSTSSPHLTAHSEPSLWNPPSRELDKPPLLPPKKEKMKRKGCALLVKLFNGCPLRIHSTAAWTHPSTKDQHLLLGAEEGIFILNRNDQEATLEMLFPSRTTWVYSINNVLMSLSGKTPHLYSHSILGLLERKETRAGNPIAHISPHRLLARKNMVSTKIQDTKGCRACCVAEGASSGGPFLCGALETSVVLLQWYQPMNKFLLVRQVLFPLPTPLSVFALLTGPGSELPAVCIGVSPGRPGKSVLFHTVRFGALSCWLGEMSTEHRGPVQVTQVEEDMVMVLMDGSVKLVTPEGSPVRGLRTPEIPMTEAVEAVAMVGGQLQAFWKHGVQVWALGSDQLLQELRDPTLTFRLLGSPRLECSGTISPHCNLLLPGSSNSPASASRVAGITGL", "procedure,_shortened": "as §1"}, "MKNK2 (MNK2)": {"biological_target": "MKNK2 (MNK2) (Homo sapiens, UniProt Q9HBH9)", "sequence (Q9HBH9 whole entry)": "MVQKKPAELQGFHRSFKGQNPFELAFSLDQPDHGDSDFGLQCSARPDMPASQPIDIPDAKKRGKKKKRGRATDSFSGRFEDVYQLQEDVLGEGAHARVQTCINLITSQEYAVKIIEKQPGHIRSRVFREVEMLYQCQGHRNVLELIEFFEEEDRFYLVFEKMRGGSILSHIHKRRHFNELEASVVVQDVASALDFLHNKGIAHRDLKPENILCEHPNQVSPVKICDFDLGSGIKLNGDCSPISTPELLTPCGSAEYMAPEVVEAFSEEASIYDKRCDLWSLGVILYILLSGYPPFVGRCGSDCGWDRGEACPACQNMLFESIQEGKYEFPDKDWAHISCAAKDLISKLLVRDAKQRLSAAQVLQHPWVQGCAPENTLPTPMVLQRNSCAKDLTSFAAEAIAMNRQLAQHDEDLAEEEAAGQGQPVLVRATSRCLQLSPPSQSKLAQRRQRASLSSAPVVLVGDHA", "procedure,_shortened": "as §1"}, "DDR2": {"biological_target": "T2, DDR2 (Homo sapiens, UniProt Q16832)", "T2 sequence (Q16832 22-855)": "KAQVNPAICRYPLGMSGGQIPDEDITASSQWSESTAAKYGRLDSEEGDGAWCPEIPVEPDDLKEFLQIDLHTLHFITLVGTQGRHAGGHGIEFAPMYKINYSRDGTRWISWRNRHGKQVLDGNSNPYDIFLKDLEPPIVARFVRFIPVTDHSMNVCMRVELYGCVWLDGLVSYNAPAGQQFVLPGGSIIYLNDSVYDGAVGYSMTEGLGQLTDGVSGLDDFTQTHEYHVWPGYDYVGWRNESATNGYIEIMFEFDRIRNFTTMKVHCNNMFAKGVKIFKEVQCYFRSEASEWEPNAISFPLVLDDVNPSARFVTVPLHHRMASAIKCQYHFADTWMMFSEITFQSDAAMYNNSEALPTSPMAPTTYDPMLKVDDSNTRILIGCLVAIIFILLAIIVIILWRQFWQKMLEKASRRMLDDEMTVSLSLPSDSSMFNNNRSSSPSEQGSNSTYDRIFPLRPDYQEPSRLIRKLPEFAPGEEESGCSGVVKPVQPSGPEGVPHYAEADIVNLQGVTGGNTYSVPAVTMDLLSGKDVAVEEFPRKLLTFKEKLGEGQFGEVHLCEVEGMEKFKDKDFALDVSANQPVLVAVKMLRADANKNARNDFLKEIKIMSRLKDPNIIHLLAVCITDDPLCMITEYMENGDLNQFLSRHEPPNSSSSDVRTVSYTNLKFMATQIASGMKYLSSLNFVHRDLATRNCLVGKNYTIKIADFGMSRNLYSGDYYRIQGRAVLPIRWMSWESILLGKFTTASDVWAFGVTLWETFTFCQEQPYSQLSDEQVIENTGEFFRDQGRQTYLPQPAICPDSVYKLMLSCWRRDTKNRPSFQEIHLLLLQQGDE", "procedure,_shortened": "as §1"}}, "data": [{"smiles": "CCN1CCN(c2ccc(Nc3cc(Nc4cccc5c4N(C(C)=O)CC5)ccn3)cc2)CC1", "note": "[Compound 1938]", "values": [{"measurement": "% Displacement Point 1", "setting": "ULK2", "value": 3, "unit": "%"}, {"measurement": "% Displacement Point 2", "setting": "ULK2", "value": -0.488, "unit": "%"}, {"measurement": "% Displacement mean", "setting": "ULK2", "value": 1.23, "unit": "%"}, {"measurement": "% Displacement Point 1", "setting": "MAP4K1 (HPK1)", "value": -3.25, "unit": "%"}, {"measurement": "% Displacement Point 2", "setting": "MAP4K1 (HPK1)", "value": 6.64, "unit": "%"}, {"measurement": "% Displacement mean", "setting": "MAP4K1 (HPK1)", "value": 1.7, "unit": "%"}, {"measurement": "% Displacement Point 1", "setting": "MKNK2 (MNK2)", "value": 20, "unit": "%"}, {"measurement": "% Displacement Point 2", "setting": "MKNK2 (MNK2)", "value": 17, "unit": "%"}, {"measurement": "% Displacement mean", "setting": "MKNK2 (MNK2)", "value": 18, "unit": "%"}, {"measurement": "% Displacement Point 1", "setting": "DDR2", "value": -6.46, "unit": "%"}, {"measurement": "% Displacement Point 2", "setting": "DDR2", "value": 0.345, "unit": "%"}, {"measurement": "% Displacement mean", "setting": "DDR2", "value": -3, "unit": "%"}]}]}
